Experimental data taken from publication PMC11395096, “Study of Pentacyclic Triterpenes from Lyophilised Aguaje: Anti-Inflammatory and Antioxidant Properties” (International Journal of Molecular Sciences, 2024).
Counter-ions that a name gives are not always drawn.

Assays:
Nrf2 [1] = test: Nrf2 activation assay, IC-21 cells; type: cell-based; settings: Mus musculus, 72 h, IC-21, 72 h, read-out: Activation of Nrf2 production EC50
Excerpt: (§1) The IC-21 (Mus musculus macrophage cells, TIB-186) and RAW 264.7 (Mus musculus macrophage cells, TIB-71) cell lines used in this study were obtained from the American Type Culture Collection (ATCC, Manassas, VA, USA). The selection of IC-21 and RAW 264.7 cell lines for studies on inflammation and antioxidant activity is based on two main reasons: the cell type and their origin. Firstly, both IC-21 and RAW 264.7 cell lines are macrophages, which play a crucial role in the immune system, being essential for the inflammatory response and regulation of oxidative stress. These cells have the capacity to produce pro-inflammatory cytokines, express transcription factors such as NF-κB, and generate NO, making them ideal models to understand inflammatory mechanisms. Moreover, macrophages are involved in the activation of Nrf2, a transcription factor critical for the antioxidant response, allowing these cell lines to enable a comprehensive assessment of antioxidant activity within an inflammatory context.
(§2) Stock solutions of the samples (extracts and compounds) were prepared at a concentration of 1 mM using dimethyl sulfoxide (DMSO ≥ 99.9% Sigma-Aldrich, CAS No. 67-68-5, St. Louis, MO, USA) as the solvent. Dilutions from these stock solutions were then made to achieve concentrations between 100 and 0.20 μg mL^−1 or μM in the culture medium, which contained 0.5% DMSO. A control group consisting only of the culture medium with 0.5% DMSO was also included to determine its potential cytotoxicity.
(§3) The 50% cytotoxic concentration (CC50), 50% inhibitory concentration (IC50), and half-maximal effective concentration (EC50) values were calculated using the sigmoidal dose–response function. All experiments were conducted in triplicate, and the data obtained were expressed as the mean and standard deviation. A two-way analysis of variance (ANOVA) combined with Dunnett’s multiple comparisons test (p < 0.001) was performed for the cytotoxicity, NF-κB inhibition, NO inhibition and Nrf2 activation assays, while a one-way ordinary ANOVA combined with Dunnett’s multiple comparisons test (p < 0.001) was conducted for the SOD assay. All statistical analyses were performed using GraphPad Prism version 10.0.0 (La Jolla, CA, USA, www.graphpad.com, accessed on 28 August 2024).
(§4) To determine the antioxidant response of the samples (at the same concentration as in the viability assay), the Nrf2 activation assay was used following the protocol carried out by Apaza Ticona et al.. Cells were cultured in 96-well plates (1 × 10^4 cells per well). […] Absorbance was measured at 540 nm using a microplate reader.

Nrf2 [2] = test: Nrf2 activation assay, RAW 264.7 cells; type: cell-based, Mus musculus; settings: RAW 264.7, 72 h, read-out: Activation of Nrf2 production EC50
Excerpt: as §1, §2, §3, §4

Nrf2 [3] = test: Nrf2 activation assay, value not assigned to one cell line; type: cell-based, Mus musculus
Protocol: as §4

NF-κB [4] = test: NF-κB inhibition assay, value not assigned to one cell line; type: cell-based; settings: Mus musculus
Protocol: (§5) To assess the anti-inflammatory potential of the samples at the same concentrations used in the cell viability assay, an NF-κB inhibition assay was used following the approach established by Apaza Ticona et al.. Cells were seeded in 96-well plates at a density of 3 × 10^3 cells per well. […] Absorbance was quantified at 450 nm using a microplate reader.

[5] = biological target: Superoxide Dismutase (SOD); test: SOD activation assay (kit); type: biochemical; settings: 72 h; for EC50: compounds series
Protocol: as §3
To determine the antioxidant response of the samples (at the same concentration as in the viability assay), the SOD activation assay kit (Sigma-Aldrich, CAS No. MAK528, St. Louis, MO, USA) was used, implementing the protocol adapted from Vincent et al.. […] Absorbance was measured at 450 nm using a microplate reader.

NO production [6] = test: NO inhibition assay, LPS-stimulated IC-21 cells; type: cell-based, Mus musculus; settings: IC-21, + LPS 100 μg mL^−1, 72 h
Excerpt: as §1, §2, §3
(§6) To determine the anti-inflammatory activity of the samples (at the same concentration as in the viability assay), the […] was used, implementing the protocol adapted from Guo et al.. Cells were cultured in 96-well plates (1 × 10^4 cells per well). […] Absorbance was measured at 540 nm using a microplate reader.

NO production [7] = test: NO inhibition assay, LPS-stimulated RAW 264.7 cells; type: cell-based, Mus musculus; settings: RAW 264.7, + LPS 100 μg mL^−1, 72 h
Excerpt: as §1, §2, §3, §6

NO production [8] = test: NO inhibition assay, value not assigned to one cell line; type: cell-based; settings: Mus musculus
Protocol: as §6

[9] = NR (neutral red) viability assay, IC-21 cells; type: cell-based, Mus musculus; settings: mouse, IC-21 macrophage cells, IC-21, 72 h, compounds series
Excerpt: as §1
(§7) Cultivated in a Roswell Park Memorial Institute (RPMI) 1640 medium (RPMI 1640 Sigma-Aldrich, CAS No. R7755, St. Louis, MO, USA) supplemented with 2 mM L-glutamine (≥99% Sigma-Aldrich, CAS No. 56-85-9, St. Louis, MO, USA), 10% foetal bovine serum (FBS Sigma-Aldrich, CAS No. TMS-016, St. Louis, MO, USA), and 10,000 units of penicillin and 10 mg streptomycin mL^−1 (Sigma-Aldrich, CAS No. P4333, St. Louis, MO, USA) in culture flasks, the cells were maintained in an incubator under normoxic conditions (20–21% O2) and a humidified atmosphere (5% CO2, at 37 °C).
as §2, §3
(§8) Cell viability was evaluated using a colorimetric assay in 96-well plates, employing 3-amino-7-dimethylamino-2-methylphenazine hydrochloride salt reagent (NR, Sigma-Aldrich, CAS No. 553-24-2, St. Louis, MO, USA). ACTD (≥95% Sigma-Aldrich, CAS No. 50-76-0, St. Louis, MO, USA) was used as a positive control, with a CC50 value of 0.01 μg mL^−1 for the extracts, or 0.008 μM for the compounds. The IC-21 and RAW 264.7 cell lines were cultured in 96-well plates at 37 °C with 5% CO2 until >90% confluency was achieved (1 × 10^4 cells per well). Subsequently, the cultures were treated with sample dilutions (100–0.20 μg mL^−1 or μM) for 72 h at 37 °C with 5% CO2 in phenol red-free RPMI. The supernatant was then discarded, and the cells were washed with phosphate-buffered saline (PBS) before being incubated with […] NR (50 μg mL^−1; 173 μM) for 3 h at 37 °C with 5% CO2. NR labelling was performed after DMSO treatment. […]

IC-21 cell line = test: NR (neutral red) viability assay, IC-21 cells; type: cell-based, Mus musculus; settings: IC-21, 72 h, compounds series
Excerpt: as §1, §7, §2, §3, §8

[10] = NR (neutral red) viability assay, RAW 264.7 cells; type: cell-based, Mus musculus; settings: mouse, RAW 264.7 macrophage cells, RAW 264.7, 72 h, compounds series
Excerpt: as §1, §7, §2, §3, §8

RAW 264.7 cell line = test: NR (neutral red) viability assay, RAW 264.7 cells; type: cell-based, Mus musculus; settings: RAW 264.7, 72 h, compounds series
Excerpt: as §1, §7, §2, §3, §8

NF-κB [11] = test: NF-κB inhibition assay, LPS-stimulated IC-21 cells; type: cell-based, Mus musculus; settings: IC-21, + LPS 100 μg mL^−1, 72 h; for IC50: compounds series, read-out: Inhibition of NF-κB production IC50
Excerpt: as §1, §2, §3, §5

NF-κB [12] = test: NF-κB inhibition assay, LPS-stimulated RAW 264.7 cells; type: cell-based, Mus musculus; settings: RAW 264.7, + LPS 100 μg mL^−1, 72 h; for IC50: compounds series, read-out: Inhibition of NF-κB production IC50
Excerpt: as §1, §2, §3, §5

NF-κB [13] = test system: NF-κB; set-up: method as in PMID 24853120, PMID 15668926; settings: cited from earlier work
[14] = Mus musculus, RAW264.7, 72 h, compounds series
[15] = Mus musculus, RAW264.7, 72 h, extracts series
[16] = Mus musculus, RAW264.7, across IC-21 and RAW 264.7 / cell line not stated, compounds series
[17] = Mus musculus, 72 h, compounds series
[18] = RAW264.7, across IC-21 and RAW 264.7 / cell line not given, compounds series

| Compound | EC50 (Nrf2 [1]; compounds series) [nM] | EC50 (Nrf2 [2]; [14]) [µM] | EC50 [5] [µM] | IC50 (NO production [6]; [17]) [µM] | IC50 (NO production [7]; [14]) [µM] | CC50 at 72 h [9] [µM] | CC50 at 72 h [10] [µM] | CC50 (RAW 264.7 cell line) [µM] | IC50 (NF-κB [11]; Mus musculus, 72 h) [µM] | IC50 (NF-κB [12]; Mus musculus, RAW264.7, 72 h) [µM] | other results |
| --- | --- | --- | --- | --- | --- | --- | --- | --- | --- | --- | --- |
| COC(=O)[C@]12CCC(C)(C)C[C@H]1[C@H]1C(=O)C=C3[C@@]4(C)C=C(C#N)C(=O)C(C)(C)[C@@H]4CC[C@@]3(C)[C@]1(C)CC2 [CDDO-Me, bardoxolone methyl, reference compound] | 0.09 | 0.00013 |  |  |  |  |  |  |  |  | EC50 (Nrf2 [1]; extracts series): 0.05 ng/mL; EC50 (Nrf2 [2]; [15]): 0.08 ng/mL; EC50 (Nrf2 [3]; [16]): 0.09 to 0.13 nM; EC50 (Nrf2 [3]; Mus musculus, cell line not stated, extracts series): 0.07 ng/mL; EC50 (Nrf2 [3]; across IC-21 and RAW 264.7 / cell line not given, compounds series): 0.11 nM |
| CC1=C(O)C(=O)C=C2C1=CC=C1[C@@]2(C)CC[C@@]2(C)[C@@H]3C[C@](C)(C(=O)O)CC[C@]3(C)CC[C@]12C [CEL, celastrol] |  |  |  |  |  |  |  |  |  |  | IC50 (NF-κB [4]; RAW264.7, read-out: NF-κB inhibition IC50): 7.41 µM; IC50 (NF-κB [4]; read-out: NF-κB inhibition IC50): 3.34 µg/mL |
| O=C(O)c1cc(O)c(O)c(O)c1 [GA, gallic acid, reference compound] |  |  | 12.1 |  |  |  |  |  |  |  | SOD activation EC50 ([5]; extracts series): 2.06 µg/mL |
| [H]/N=C(/NC)NCCC[C@H](N)C(=O)O [LNMMA, N^G-methyl-L-arginine acetate salt] |  |  |  | 6.43 | 6.83 |  |  |  |  |  | IC50 (NO production [6]; Mus musculus, 72 h, extracts series): 1.57 µg/mL; IC50 (NO production [7]; [15]): 1.64 µg/mL; IC50 (NO production [8]; [18]): 6.63 µM; IC50 (NO production [8]; cell line not stated, extracts series): 1.61 µg/mL |
| C[C@H]1[C@H](C)CC[C@]2(C(=O)O)CC[C@]3(C)C(=CC(=O)[C@@H]4[C@@]5(C)CCC(=O)C(C)(C)[C@@H]5CC[C@]43C)[C@H]12 [compound 1, 3,11-dioxours-12-en-28-oic acid] | 243 | 0.548 | 1.87 | 4.75 | 6.59 | 67.6 | 75.4 | 75.4 | 7.39 | 8.11 | CC50 (IC-21 cell line): 67.6 µM; EC50 (Nrf2 [2]; compounds series): 0.548 µM; IC50 (NF-κB [4]; RAW264.7, across IC-21 and RAW 264.7 / cell line not given, compounds series, read-out: NF-κB inhibition IC50): 7.39 to 8.11 µM; IC50 (NO production [8]; [18]): 4.75 to 6.59 µM; EC50 (Nrf2 [3]; [16]): 243 to 548 nM |
| CC(=O)O[C@H]1CC[C@]2(C)[C@H]3C(=O)C=C4[C@@H]5[C@@H](C)[C@H](C)CC[C@]5(C(=O)O)CC[C@@]4(C)[C@]3(C)CC[C@H]2C1(C)C [compound 2, (3β)-3-acetyloxy-11-oxours-12-en-28-oic acid] | 524 | 0.772 | 7.43 | 11.3 | 15.5 | 78.5 | 84.9 | 84.9 | 13.4 | 20 |  |
| C[C@H]1[C@H](C)CC[C@]2(C(=O)O)CC[C@]3(C)C(=CC(=O)[C@@H]4[C@@]5(C)CC[C@H](O)C(C)(C)[C@@H]5CC[C@]43C)[C@H]12 [compound 3, (3β)-3-hydroxy-11-oxours-12-en-28-oic acid] | 1030 | 1.14 | 13.2 | 16.6 | 24.8 | 88.5 | 92.4 | 92.4 | 21 | 27.1 | CC50 (IC-21 cell line): 88.5 µM |
| COc1cc(/C=C/C(=O)CC(=O)/C=C/c2ccc(O)c(OC)c2)ccc1O [curcumin] |  |  |  |  |  |  |  |  |  |  | concentration capable of inhibiting NF-κB activation (NF-κB [13]): 10 to 50 µM |
| O=c1c(O)c(-c2ccc(O)c(O)c2)oc2cc(O)cc(O)c12 [quercetin] |  |  |  |  |  |  |  |  |  |  | concentration capable of inhibiting NF-κB activation (NF-κB [13]): 25 to 100 µM |
| lipopolysaccharide [LPS, reference compound] |  |  |  |  |  |  |  |  |  |  | IC50 (NF-κB [11]): 95.8 µM; Inhibition of NF-κB production IC50 (NF-κB [11]; extracts series): 97.5 µg/mL; IC50 (NF-κB [12]): 99.2 µM; Inhibition of NF-κB production IC50 (NF-κB [12]; extracts series): 98.7 µg/mL; IC50 (NO production [6]; compounds series): 97 µM; Inhibition of NO production IC50 (NO production [6]; extracts series): 95.2 µg/mL; IC50 (NO production [7]; compounds series): 98.3 µM; Inhibition of NO production IC50 (NO production [7]; extracts series): 97.2 µg/mL |
